The values that follow come from patent US10961222B2, “Chemical compound of isocitrate dehydrogenase inhibitor, and application thereof” (NANJING SANHOME PHARMACEUTICAL CO., LTD., priority 2016, dated 2021).

The target of one assay is T1, IDH2-R140Q mutant enzyme (Homo sapiens, UniProt P48735, R140Q).
T1 construct: purchased BPS 71100-1
T1 sequence (P48735 40-452 R140Q): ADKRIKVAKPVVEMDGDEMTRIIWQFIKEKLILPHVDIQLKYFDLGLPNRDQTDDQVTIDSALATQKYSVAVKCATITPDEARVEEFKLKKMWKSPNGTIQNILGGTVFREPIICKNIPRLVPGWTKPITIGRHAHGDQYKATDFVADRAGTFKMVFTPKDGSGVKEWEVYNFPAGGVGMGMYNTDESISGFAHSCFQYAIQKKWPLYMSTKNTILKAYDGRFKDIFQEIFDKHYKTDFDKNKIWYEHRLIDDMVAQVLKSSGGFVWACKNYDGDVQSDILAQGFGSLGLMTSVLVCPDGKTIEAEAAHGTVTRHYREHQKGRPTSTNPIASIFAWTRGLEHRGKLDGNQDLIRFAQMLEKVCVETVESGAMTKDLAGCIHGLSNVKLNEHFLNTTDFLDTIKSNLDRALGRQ
The assay is described as follows: Inhibitory activity of compounds on IDH2-R140Q enzyme in vitro (diaphorase/resazurin fluorescence). It is filed as biochemical. Particulars: R140Q IC50, IDH2-R140Q, pre-incubated 16 h with enzyme and NADPH, reaction 1 h with α-ketoglutarate. Background: The colour change of resazurin is a common sign of viable cells or microbes.

The subject of assay [1] is U87-MG (IDH2-R140Q) subcutaneous xenograft tumor. In words: Subcutaneous xenograft tumor caused by U87-MG (IDH2-R140Q) mutant cells in vivo: intratumor 2-HG. To be noted: intragastric, 10 days, mean, relative to U87-MG (IDH2-R140Q) control group. The arrangement: species or system BALB/c nude mice.

As a reminder, the IC50 is the concentration at which inhibition is half-maximal. Compound `CC(C)(O)CNc1nc(Nc2ccnc(C(F)(F)F)c2)nc(-c2cccc(C(F)(F)F)n2)n1` [AG-221, 2-methyl-1-(4-(6-(trifluoromethyl)pyridin-2-yl)-6-(2-(trifluoromethyl)pyridin-4-ylamino)-1,3,5-triazin-2ylamino)propan-2-ol, reference compound] had a half-maximal inhibitory concentration (IC50) at IDH2-R140Q mutant enzyme of 21 nM. Also, the “Intratumor 2-HG(%) after 10 days of administration” value was 58% in assay [1] (6.25 mg/kg), 9% in assay [1] (12.5 mg/kg) and −4% in assay [1] (25 mg/kg).
